{"source": "patent US20260285850A1", "about": "“SUBSTITUTED OXAZOLIDINONES AND IMIDAZOLINONES AS HERBICIDES” (FMC CORPORATION, priority 2023, published 2026)", "format_in_all_cases": "in vivo", "key": {"[1]": {"test_system": "barnyardgrass (Echinochloa crus-galli)", "assay": "Test A preemergence soil spray, visual injury rating 0-100", "conditions": "10 days, 0 = no effect, 100 = complete control", "text": "(§1) Seeds of plant species selected from barnyardgrass (Echinochloa crus-galli), blackgrass (Alopecurus myosuroides), corn (Zea mays), foxtail, giant (giant foxtail, Setaria faberi), green foxtail (Setaria viridis), goosegrass (Eleusine indica), kochia (Bassia scoparia), oat, wild (wild oat, Avena fatua), palmer (palmer amaranth, palmer pigweed, Amaranthus palmeri), ragweed (common ragweed, Ambrosia artemisiifolia), ryegrass, Italian (italian ryegrass, Lolium multiflorum), soybean (Glycine max) and wheat (Triticum aestivum) were planted into a blend of loam soil and sand and treated preemergence with a directed soil spray using test chemicals formulated in a non-phytotoxic solvent mixture which included a surfactant.\n(§2) At the same time, plants selected from these crops and weed species and also galium (catchweed bedstraw, Galium aparine) and horseweed (Erigeron canadensis) were planted in pots containing the same blend of loam soil and sand and treated with postemergence applications of test chemicals formulated in the same manner. Plants ranged in height from 2 to 10 cm and were in the one- to two-leaf stage for the postemergence treatment. Treated plants and untreated controls were maintained in a greenhouse for 10 days, after which time all treated plants were compared to untreated controls and visually evaluated for injury. Plant response ratings, summarized in Table A, are based on a 0 to 100 scale where 0 is no effect and 100 is complete control. A dash (-) response means no test result."}, "[2]": {"test_system": "blackgrass (Alopecurus myosuroides)", "assay": "Test A preemergence soil spray, visual injury rating 0-100", "conditions": "10 days, 0 = no effect, 100 = complete control", "text": "as §1, §2"}, "[3]": {"test_system": "corn (Zea mays)", "assay": "Test A preemergence soil spray, visual injury rating 0-100", "conditions": "10 days, 0 = no effect, 100 = complete control", "text": "as §1, §2"}, "[4]": {"test_system": "green foxtail (Setaria viridis)", "assay": "Test A preemergence soil spray, visual injury rating 0-100", "conditions": "10 days, 0 = no effect, 100 = complete control", "text": "as §1, §2"}, "[5]": {"test_system": "kochia (Bassia scoparia)", "assay": "Test A preemergence soil spray, visual injury rating 0-100", "conditions": "10 days, 0 = no effect, 100 = complete control", "text": "as §1, §2"}, "[6]": {"test_system": "oat, wild (wild oat, Avena fatua)", "assay": "Test A preemergence soil spray, visual injury rating 0-100", "conditions": "10 days, 0 = no effect, 100 = complete control", "text": "as §1, §2"}, "[7]": {"test_system": "palmer (palmer amaranth, palmer pigweed, Amaranthus palmeri)", "assay": "Test A preemergence soil spray, visual injury rating 0-100", "conditions": "10 days, 0 = no effect, 100 = complete control", "text": "as §1, §2"}, "[8]": {"test_system": "ragweed (common ragweed, Ambrosia artemisiifolia)", "assay": "Test A preemergence soil spray, visual injury rating 0-100", "conditions": "10 days, 0 = no effect, 100 = complete control", "text": "as §1, §2"}, "[9]": {"test_system": "ryegrass, Italian (italian ryegrass, Lolium multiflorum)", "assay": "Test A preemergence soil spray, visual injury rating 0-100", "conditions": "10 days, 0 = no effect, 100 = complete control", "text": "as §1, §2"}, "[10]": {"test_system": "soybean (Glycine max)", "assay": "Test A preemergence soil spray, visual injury rating 0-100", "conditions": "10 days, 0 = no effect, 100 = complete control", "text": "as §1, §2"}, "[11]": {"test_system": "wheat (Triticum aestivum)", "assay": "Test A preemergence soil spray, visual injury rating 0-100", "conditions": "10 days, 0 = no effect, 100 = complete control", "text": "as §1, §2"}, "[12]": {"test_system": "barnyardgrass (Echinochloa crus-galli)", "assay": "Test A postemergence application, visual injury rating 0-100", "conditions": "10 days", "text": "as §1, §2"}, "[13]": {"test_system": "blackgrass (Alopecurus myosuroides)", "assay": "Test A postemergence application, visual injury rating 0-100", "conditions": "10 days", "text": "as §1, §2"}, "[14]": {"test_system": "corn (Zea mays)", "assay": "Test A postemergence application, visual injury rating 0-100", "conditions": "10 days", "text": "as §1, §2"}, "[15]": {"test_system": "green foxtail (Setaria viridis)", "assay": "Test A postemergence application, visual injury rating 0-100", "conditions": "10 days", "text": "as §1, §2"}, "[16]": {"test_system": "horseweed (Erigeron canadensis)", "assay": "Test A postemergence application, visual injury rating 0-100", "conditions": "10 days", "text": "as §1, §2"}, "[17]": {"test_system": "kochia (Bassia scoparia)", "assay": "Test A postemergence application, visual injury rating 0-100", "conditions": "10 days", "text": "as §1, §2"}, "[18]": {"test_system": "oat, wild (wild oat, Avena fatua)", "assay": "Test A postemergence application, visual injury rating 0-100", "conditions": "10 days", "text": "as §1, §2"}, "[19]": {"test_system": "palmer (palmer amaranth, palmer pigweed, Amaranthus palmeri)", "assay": "Test A postemergence application, visual injury rating 0-100", "conditions": "10 days", "text": "as §1, §2"}, "[20]": {"test_system": "ragweed (common ragweed, Ambrosia artemisiifolia)", "assay": "Test A postemergence application, visual injury rating 0-100", "conditions": "10 days", "text": "as §1, §2"}, "[21]": {"test_system": "ryegrass, Italian (italian ryegrass, Lolium multiflorum)", "assay": "Test A postemergence application, visual injury rating 0-100", "conditions": "10 days", "text": "as §1, §2"}, "[22]": {"test_system": "soybean (Glycine max)", "assay": "Test A postemergence application, visual injury rating 0-100", "conditions": "10 days", "text": "as §1, §2"}, "[23]": {"test_system": "wheat (Triticum aestivum)", "assay": "Test A postemergence application, visual injury rating 0-100", "conditions": "10 days", "text": "as §1, §2"}, "[24]": {"test_system": "barnyardgrass (Echinochloa crusgalli)", "assay": "Test B flooded paddy test, visual plant response rating 0-100", "conditions": "250 g ai/ha, Flood, applied to paddy water, evaluated after 13 days", "experimental": "(§3) Plant species in the flooded paddy test selected from barnyardgrass (Echinochloa crusgalli), ducksalad (Heteranthera limosa), rice (Oryza sativa), and sedge, umbrella (small-flower umbrella sedge, Cyperus difformis) were grown to the 2-leaf stage for testing. At time of treatment, test pots were flooded to 3 cm above the soil surface, treated by application of test compounds directly to the paddy water, and then maintained at that water depth for the duration of the test. Treated plants and controls were maintained in a greenhouse for 13 days, after which time all species were compared to controls and visually evaluated. […] A dash (-) response means no test result."}, "[25]": {"test_system": "ducksalad (Heteranthera limosa)", "assay": "Test B flooded paddy test, visual plant response rating 0-100", "conditions": "250 g ai/ha, Flood, applied to paddy water, evaluated after 13 days", "experimental": "as §3"}, "[26]": {"test_system": "rice (Oryza sativa)", "assay": "Test B flooded paddy test, visual plant response rating 0-100", "conditions": "250 g ai/ha, Flood, applied to paddy water, evaluated after 13 days", "experimental": "as §3"}, "[27]": {"test_system": "sedge, umbrella (small-flower umbrella sedge, Cyperus difformis)", "assay": "Test B flooded paddy test, visual plant response rating 0-100", "conditions": "250 g ai/ha, Flood, applied to paddy water, evaluated after 13 days", "experimental": "as §3"}, "[28]": {"conditions": "31 g ai/ha, postemergence, 0 = no effect, 100 = complete control"}, "[29]": {"conditions": "Postemergence, 125 g ai/ha, 0 is no effect, 100 is complete control"}}, "data": [{"smiles": "CNC(=O)C1CC(NC(=O)C2(C)CN(c3cc(F)cc(F)c3)C(=O)O2)CO1", "note": "(centres unmarked) [Compound 8]", "values": [{"measurement": "Barnyardgrass plant response rating (0-100)", "setting": "[1]; 31 g ai/ha", "result": 0}, {"measurement": "Barnyardgrass plant response rating (0 to 100 scale)", "setting": "[1]; 125 g ai/ha", "result": 10}, {"measurement": "Blackgrass plant response rating (0-100)", "setting": "[2]; 31 g ai/ha", "result": 0}, {"measurement": "Blackgrass plant response rating (0 to 100 scale)", "setting": "[2]; 125 g ai/ha", "result": 50}, {"measurement": "Corn plant response rating (0-100)", "setting": "[3]; 31 g ai/ha", "result": 0}, {"measurement": "Corn plant response rating (0 to 100 scale)", "setting": "[3]; 125 g ai/ha", "result": 0}, {"measurement": "Foxtail, Green plant response rating (0-100)", "setting": "[4]; 31 g ai/ha", "result": 0}, {"measurement": "Foxtail, Green plant response rating (0 to 100 scale)", "setting": "[4]; 125 g ai/ha", "result": 40}, {"measurement": "Kochia plant response rating (0-100)", "setting": "[5]; 31 g ai/ha", "result": 0}, {"measurement": "Kochia plant response rating (0 to 100 scale)", "setting": "[5]; 125 g ai/ha", "result": 70}, {"measurement": "Oat, Wild plant response rating (0-100)", "setting": "[6]; 31 g ai/ha", "result": 0}, {"measurement": "Oat, Wild plant response rating (0 to 100 scale)", "setting": "[6]; 125 g ai/ha", "result": 20}, {"measurement": "Amaranth, Palmer plant response rating (0-100)", "setting": "[7]; 31 g ai/ha", "result": 0}, {"measurement": "Amaranth, Palmer plant response rating (0 to 100 scale)", "setting": "[7]; 125 g ai/ha", "result": 0}, {"measurement": "Ragweed plant response rating (0-100)", "setting": "[8]; 31 g ai/ha", "result": 60}, {"measurement": "Ragweed plant response rating (0 to 100 scale)", "setting": "[8]; 125 g ai/ha", "result": 0}, {"measurement": "Ryegrass, Italian plant response rating (0-100)", "setting": "[9]; 31 g ai/ha", "result": 0}, {"measurement": "Ryegrass, Italian plant response rating (0 to 100 scale)", "setting": "[9]; 125 g ai/ha", "result": 60}, {"measurement": "Soybean plant response rating (0-100)", "setting": "[10]; 31 g ai/ha", "result": 0}, {"measurement": "Soybean plant response rating (0 to 100 scale)", "setting": "[10]; 125 g ai/ha", "result": 0}, {"measurement": "Wheat plant response rating (0-100)", "setting": "[11]; 31 g ai/ha", "result": 0}, {"measurement": "Wheat plant response rating (0 to 100 scale)", "setting": "[11]; 125 g ai/ha", "result": 80}, {"measurement": "Barnyardgrass plant response rating (0-100)", "setting": "[12]; [28]", "result": 0}, {"measurement": "Barnyardgrass plant response rating (0 to 100 scale)", "setting": "[12]; [29]", "result": 0}, {"measurement": "Blackgrass plant response rating (0-100)", "setting": "[13]; [28]", "result": 0}, {"measurement": "Blackgrass plant response rating (0 to 100 scale)", "setting": "[13]; [29]", "result": 90}, {"measurement": "Corn plant response rating (0-100)", "setting": "[14]; [28]", "result": 0}, {"measurement": "Corn plant response rating (0 to 100 scale)", "setting": "[14]; [29]", "result": 0}, {"measurement": "Foxtail, Green plant response rating (0-100)", "setting": "[15]; [28]", "result": 0}, {"measurement": "Foxtail, Green plant response rating (0 to 100 scale)", "setting": "[15]; [29]", "result": 0}, {"measurement": "Horseweed plant response rating (0-100)", "setting": "[16]; [28]", "result": 30}, {"measurement": "Horseweed plant response rating (0 to 100 scale)", "setting": "[16]; [29]", "result": 10}, {"measurement": "Kochia plant response rating (0-100)", "setting": "[17]; [28]", "result": 0}, {"measurement": "Kochia plant response rating (0 to 100 scale)", "setting": "[17]; [29]", "result": 20}, {"measurement": "Oat, Wild plant response rating (0-100)", "setting": "[18]; [28]", "result": 0}, {"measurement": "Oat, Wild plant response rating (0 to 100 scale)", "setting": "[18]; [29]", "result": 0}, {"measurement": "Amaranth, Palmer plant response rating (0-100)", "setting": "[19]; [28]", "result": 0}, {"measurement": "Amaranth, Palmer / Pigweed, Palmer plant response rating (0 to 100 scale)", "setting": "[19]; [29]", "result": 0}, {"measurement": "Ragweed plant response rating (0-100)", "setting": "[20]; [28]", "result": 0}, {"measurement": "Ragweed plant response rating (0 to 100 scale)", "setting": "[20]; [29]", "result": 0}, {"measurement": "Ryegrass, Italian plant response rating (0-100)", "setting": "[21]; [28]", "result": 0}, {"measurement": "Ryegrass, Italian plant response rating (0 to 100 scale)", "setting": "[21]; [29]", "result": 0}, {"measurement": "Soybean plant response rating (0-100)", "setting": "[22]; [28]", "result": 0}, {"measurement": "Soybean plant response rating (0 to 100 scale)", "setting": "[22]; [29]", "result": 0}, {"measurement": "Wheat plant response rating (0-100)", "setting": "[23]; [28]", "result": 0}, {"measurement": "Wheat plant response rating (0 to 100 scale)", "setting": "[23]; [29]", "result": 20}, {"measurement": "Plant response rating, Barnyardgrass (0 to 100 scale, 0 is no effect and 100 is complete control)", "setting": "[24]", "result": 0}, {"measurement": "Plant response rating, Ducksalad (0 to 100 scale, 0 is no effect and 100 is complete control)", "setting": "[25]", "result": 0}, {"measurement": "Plant response rating, Rice (0 to 100 scale, 0 is no effect and 100 is complete control)", "setting": "[26]", "result": 0}, {"measurement": "Plant response rating, Sedge, Umbrella (0 to 100 scale, 0 is no effect and 100 is complete control)", "setting": "[27]", "result": 0}]}]}
